Assays:
Assay type in all cases: physicochemical
[1] = Influencing factor experiment (stability under high temperature, high humidity, light)
Method: (§1) Each test sample was placed under high temperature (60 °C), high humidity (92.5%), light (7000 lux), or accelerated (40 °C, 75% RH) conditions using a 2 mL screw-thread sample vial in an open state; each sample was placed with packaging (2 layers of medicinal low-density polyethylene bags + 1 layer of polyester/aluminum/polyethylene medicinal composite film bag) under light (7000 lux) or accelerated (40 °C, 75% RH) conditions to investigate the stability of the sample.

[2] = Accelerated experiment (stability at 40 °C, 75% RH)
Method: as §1

[3] = Solubility experiment in water
Method: The thermodynamic solubility of the compounds of the present disclosure was determined using the following test method.
The thermodynamic solubility of the compounds of the present disclosure in water was investigated. Water (1000 µL) was measured and placed into a 1 mL transparent glass tube with a stopper. An appropriate amount of each sample was weighed and added to saturate the solution, and the solution was shaken to disperse the sample. […] Then, an appropriate amount of the sample was taken, filtered through a microporous filter membrane, and subjected to content determination using high-performance liquid chromatography with an external standard method. The thermodynamic solubility of each compound in water (µg/mL) was calculated.

[4] = Hygroscopicity experiment (dynamic vapor sorption); conditions: 80.0% RH, 25 °C
Method: Test conditions for the instruments used in the experiments of the present disclosure: • 1. X-ray powder diffraction • Instrument model: Bruker D8 Focus • X-ray light source: Cu Kα • Kα1 (Å): 1.54060; • Wavelength λ (Å): 1.54060 • Slit (°): 2.5 • Scan mode: θ/2θ, scan range: 3-40° (2θ angle) • Retention time (s): 0.12 • Scanning step length (° 2θ): 0.01 • Voltage: 40 kV • Current: 40 mA • 2. Differential scanning calorimeter • Instrument model: Discovery DSC 2500 • Purging gas: nitrogen • Sample tray: aluminum tray, non-sealing gland • Method: linear heating • Ramping rate: 10 °C/min • Temperature range: 30 °C-400 °C • 3. Thermogravimetric analyzer • Instrument model: Discovery TA 55 • Purging gas: nitrogen • Sample tray: platinum, open • Method: linear heating • Ramping rate: Ramp from a starting temperature of 30 °C to 400 °C at a rate of 10 °C/min • Temperature range: 30 °C-400 °C • 4. Dynamic vapor sorption instrument • Instrument model: DVS Intrinsic. • DVS parameters: • Temperature: 25 °C; • Equilibrium: dm/dt = 0.002%/min • RH (%) test gradient: 10% • Range of RH (%) test gradient: 0%-90%-0%. • 5. Ion chromatography • Instrument model: Thermo Fisher Integrion, No. IC001 • Test method: Conductivity […] • Separation column: Dionex IonpacTM CS12 Guard 4 × 250 mm • Eluent: 20 mM methanesulfonic acid solution • Flow rate: 1.0 mL/min
• (1) Experimental instrument: dynamic vapor sorption DVS Intrinsic. • (2) Experimental conditions: Each test sample was taken and placed in a DVS sample pan for testing. • (3) DVS parameters: • Temperature: 25 °C; • Equilibrium: dm/dt = 0.002%/min • RH (%) test gradient: 10% • Range of RH (%) test gradient: 0%-90%-0%.

[5] = Light (7000 lux, packaged), 10d
[6] = Light (7000 lux, packaged), 32d
[7] = Accelerated (40 °C), packaged, 14d
[8] = Accelerated (40 °C), packaged, 32d

For COc1ccc(Cl)cc1-c1cc(C)ncc1C(=O)Nc1nc2ncc(-c3ccc(C#N)cc3)nc2s1 [Crystal form E], the Purity ([1]; 0 h, 0d) was 99.39%, the Total impurities ([1]; 0 h, 0d) was 0.52% and the Purity ([1]; High humidity (92.5% RH), 11d) was 99.48%. It also gave a Total impurities ([1]; High humidity (92.5% RH), 11d) of 0.52%, a Purity ([1]; High temperature (60 °C), 11d) of 99.25% and a Total impurities ([1]; High temperature (60 °C), 11d) of 0.75%. For the same molecule, the Purity ([1]; Light (7000 lux, open), 7d) was 99.24%, the Total impurities ([1]; Light (7000 lux, open), 7d) was 0.76% and the physical stability ([1]; high humidity (92.5% RH)) was “relatively poor physical stability”. The Purity ([2]; 0 h, 0d) was 99.39%, the Total impurities ([2]; 0 h, 0d) was 0.52% and the Purity ([2]; Accelerated (40 °C), open, 7d) was 99.49%. The Total impurities ([2]; Accelerated (40 °C), open, 7d) was 0.51%, the physical stability ([2]; accelerated (40 °C, 75% RH)) was “relatively poor physical stability” and the “Dynamic solubility in water” value ([3]; 1h, 60 min) was <0.5 µg/mL. For the same molecule, the “Dynamic solubility in water” value ([3]; 2h, 120 min) was 1.03 µg/mL, the “Dynamic solubility in water” value ([3]; 4h, 240 min) was 2.26 µg/mL and the “Dynamic solubility in water” value ([3]; 24h, 1440 min) was 2.72 µg/mL. For the same molecule, the “weight gain due to moisture absorption” value [4] was 2.5%.
For COc1ccc(Cl)cc1-c1cc(C)ncc1C(=O)Nc1nc2ncc(-c3ccc(C#N)cc3)nc2s1 [Crystal form B], the Purity ([1]; 0 h, 0d) was 98.89%, the Total impurities ([1]; 0 h, 0d) was 1.11% and the Purity ([1]; High humidity (92.5% RH), 7d) was 98.60%. For the same molecule, the Total impurities ([1]; High humidity (92.5% RH), 7d) was 1.40%, the Purity ([1]; High humidity (92.5% RH), 14d) was 98.89% and the Total impurities ([1]; High humidity (92.5% RH), 14d) was 1.11%. The Purity ([1]; High humidity (92.5% RH), 32d) was 98.83%, the Total impurities ([1]; High humidity (92.5% RH), 32d) was 1.17% and the Purity ([1]; High temperature (60 °C), 7d) was 98.98%. The Total impurities ([1]; High temperature (60 °C), 7d) was 1.02%, the Purity ([1]; High temperature (60 °C), 14d) was 98.93% and the Total impurities ([1]; High temperature (60 °C), 14d) was 1.07%. It also gave a Purity ([1]; High temperature (60 °C), 32d) of 98.84%, a Total impurities ([1]; High temperature (60 °C), 32d) of 1.16% and a Purity ([1]; Light (7000 lux, open), 7d) of 98.84%. The Total impurities ([1]; Light (7000 lux, open), 7d) was 1.16%, the Purity ([1]; Light (7000 lux, open), 14d) was 98.85% and the Total impurities ([1]; Light (7000 lux, open), 14d) was 1.15%. The Purity ([1]; Light (7000 lux, open), 32d) was 98.73%, the Total impurities ([1]; Light (7000 lux, open), 32d) was 1.27% and the Purity [1, 5] was 98.90%. It also gave a Total impurities [1, 5] of 1.10%, a Purity [1, 6] of 98.90% and a Total impurities [1, 6] of 1.10%. The Purity ([2]; 0 h, 0d) was 98.89%, the Total impurities ([2]; 0 h, 0d) was 1.11% and the Purity ([2]; Accelerated (40 °C), open, 7d) was 98.84%. For the same molecule, the Total impurities ([2]; Accelerated (40 °C), open, 7d) was 1.16%, the Purity ([2]; Accelerated (40 °C), open, 14d) was 98.87% and the Total impurities ([2]; Accelerated (40 °C), open, 14d) was 1.13%. For the same molecule, the Purity ([2]; Accelerated (40 °C), open, 32d) was 98.88%, the Total impurities ([2]; Accelerated (40 °C), open, 32d) was 1.12% and the Purity [2, 7] was 98.87%. The Total impurities [2, 7] was 1.13%, the Purity [2, 8] was 98.82% and the Total impurities [2, 8] was 1.18%. For the same molecule, the “Dynamic solubility in water” value ([3]; 1h) was <0.5 µg/mL, the “Dynamic solubility in water” value ([3]; 2h) was <0.5 µg/mL and the “Dynamic solubility in water” value ([3]; 4h) was <0.5 µg/mL. The “Dynamic solubility in water” value ([3]; 24h) was 0.77 µg/mL and the “weight gain due to moisture absorption” value [4] was 1.5%.

From patent EP4745145A1, “SALT OF THIAZOLOPYRAZINE COMPOUND OR CRYSTAL THEREOF AND USE THEREOF” (Simcere Zaiming Pharmaceutical Co., Ltd., priority 2023, dated 2025)
